Measured values taken from BindingDB's records for doi:10.1074/jbc.M112.443390 (The Ohio State University, 2013).

Assays:
[1] = target: T1, Gag-Pol polyprotein (Human immunodeficiency virus type 1 group M subtype B (isolate NY5), UniProt P12497); test: Strand Trasnfer Assay
Text: (§1) A recently reported time-resolved fluorescence assay [J. Biol. Chem. 287: 21189-21203] was used to quantify IN 3'-processing and strand transfer activities.

[2] = target: T2, Gag-Pol polyprotein [A1275T] (Human immunodeficiency virus type 1 group M subtype B (isolate NY5), UniProt P12497, A1275T); test: Strand Trasnfer Assay
Text: as §1

[3] = target: T1, Gag-Pol polyprotein; test: 3'-Processing Assay
Text: as §1

[4] = target: T2, Gag-Pol polyprotein [A1275T]; test: 3'-Processing Assay
Text: as §1

CO[C@H](C(=O)O)c1c(C)nc2ccc(Br)cc2c1-c1ccc(Cl)cc1
IC50 [1]: 400 nM
IC50 [2]: 4610 nM
IC50 [3]: 910 nM
IC50 [4]: 261000 nM

Cc1nc2ccc(Br)cc2c(-c2ccc(Cl)cc2)c1C(OC(C)(C)C)C(=O)O (stereo not drawn) [ALLINI-2]
IC50 [1]: 170 nM
IC50 [2]: 890 nM
IC50 [3]: 180 nM
IC50 [4]: 200000 nM
